Among the test systems are SNB-19 CNS; UO-31 renal; ACHN renal; T-47D breast; NCI-H226 lung; OVCAR-5 ovarian; NCI-H460 lung; HL-60(TB) leukemia; HCC-2998 colon; UACC-62 melanoma.
Assay in all cases: NCI anticancer screen, dose series, 48 h

SMILES strings stand for the structures.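 Five compound concentrations were applied to cells in 96-well plates for 48 hours; endpoints were derived by simple linear interpolation of the resulting dose-response curve. At the TGI there is no net growth.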

Take `OCC1OC(O[C@H]2CN3[C@H](O)[C@@H](O)[C@H](O)[C@H]3C2O)C(O)C(O)C1O` (stereo not given in full): the TGI with SNB-19 CNS, with UO-31 renal, in the experiment with ACHN renal, in the experiment with T-47D breast, with NCI-H226 lung and in the experiment with OVCAR-5 ovarian was > 100 µM each time. Also, the TGI in the experiment on NCI-H460 lung, in the experiment with HL-60(TB) leukemia, in the experiment on HCC-2998 colon and with UACC-62 melanoma was > 100 µM in each case.
For the molecule `CC1=NC(C)(C)N(O)C1(C)C`, the TGI in the experiment with SNB-19 CNS, in the experiment with UO-31 renal, in the experiment with ACHN renal, in the experiment on T-47D breast, in the experiment with NCI-H226 lung and in the experiment on OVCAR-5 ovarian was > 100 µM throughout. Besides, the TGI with NCI-H460 lung, with HL-60(TB) leukemia, in the experiment with HCC-2998 colon and with UACC-62 melanoma was > 100 µM in each case.
In the case of `CC(O)(C(=O)N(O)c1ccc(Cl)cc1)c1ccc(Cl)cc1` (stereo not given), the TGI in the experiment on SNB-19 CNS was > 100 µM; in the experiment on UO-31 renal, 42.4 µM; in the experiment with ACHN renal, 62.3 µM; in the experiment on T-47D breast, > 100 µM; in the experiment with NCI-H226 lung, > 100 µM; with OVCAR-5 ovarian it was > 100 µM. The TGI in the experiment with NCI-H460 lung is > 100 µM; with HL-60(TB) leukemia, 35.9 µM; in the experiment with HCC-2998 colon, 38.7 µM; in the experiment with UACC-62 melanoma, > 100 µM.
As for `COc1ccc(CN2C(=O)C(=O)N(C)C2=O)c2ccccc12`, the TGI in the experiment on SNB-19 CNS, in the experiment on UO-31 renal, with ACHN renal, in the experiment on T-47D breast, in the experiment with NCI-H226 lung and with OVCAR-5 ovarian was > 10 µM each time. The TGI in the experiment with NCI-H460 lung, in the experiment on HL-60(TB) leukemia, in the experiment on HCC-2998 colon and with UACC-62 melanoma was > 10 µM throughout.

Values taken from PubChem BioAssay (NCI).
